Active and inactive are the calls of the source. How the calls were made is not given here.
Test system: rodent carcinogenicity bioassays, tumor incidence
Test: CCRIS carcinogenicity studies
In short: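 Archive of carcinogenicity, mutagenicity, tumor promotion and tumor inhibition results drawn from journals, NCI reports and other sources, expert-reviewed; covers 1985-2011 and is no longer updated.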

COc1cc(-c2ccc(N)c(OC)c2)ccc1N
carcinogen call (Species: HAMSTER, Route: ORAL, Tumor Site: Type of Lesion: FORESTOMACH): active; positive | carcinogen call (Species: MOUSE, Strain/Sex: BALB/FEMALE, Route: ORAL, Dose: 0, 20, 40, 80, 160, 315, 630 PPM IN DRINKING WATER (STUDY DURATION: 112 WK), Dose: 0, 20, 40, 80, 160, 315, 630 PPM IN DRINKING WATER (STUDY DURATION: 112 WK)): inactive; negative | carcinogen call (Species: MOUSE, Strain/Sex: BALB/MALE, Route: ORAL, Dose: 0, 20, 40, 80, 160, 315, 630 PPM IN DRINKING WATER (STUDY DURATION: 112 WK), Dose: 0, 20, 40, 80, 160, 315, 630 PPM IN DRINKING WATER (STUDY DURATION: 112 WK)): inactive; negative | carcinogen call (Species: RAT, Route: ORAL, Tumor Site: Type of Lesion: EAR (ZYMBAL GLAND), URINARY BLADDER, INTESTINES, INTEGUMENTARY SYSTEM (SKIN), Tumor Site: Type of Lesion: EAR (ZYMBAL GLAND), URINARY BLADDER, INTESTINES, INTEGUMENTARY SYSTEM (SKIN)): active; positive | carcinogen call (Species: RAT, Strain/Sex: F344/FEMALE, Route: ORAL, Dose: 0, 80, 170, 330 PPM IN DRINKING WATER FOR 21 MO ( STUDY DURATION: 93 WK), Dose: 0, 80, 170, 330 PPM IN DRINKING WATER FOR 21 MO ( STUDY DURATION: 93 WK), Tumor Site: Type of Lesion: CLITORAL GLAND: ADENOMA OR CARCINOMA, LARGE INTESTINE: ADENOMATOUS POLYP OR ADENOCARCINOMA, LIVER: NEOPLASTIC NODULE OR, Tumor Site: Type of Lesion: CLITORAL GLAND: ADENOMA OR CARCINOMA, LARGE INTESTINE: ADENOMATOUS POLYP OR ADENOCARCINOMA, LIVER: NEOPLASTIC NODULE OR): active; positive | carcinogen call (Species: RAT, Strain/Sex: F344/FEMALE, Route: ORAL, Dose: 0, 80, 170, 330 PPM IN DRINKING WATER FOR 21 MO (STUDY DURATION: 21 MO), Dose: 0, 80, 170, 330 PPM IN DRINKING WATER FOR 21 MO (STUDY DURATION: 21 MO), Tumor Site: Type of Lesion: ZYMBAL GLAND: ADENOMA, CARCINOMA, CLITORAL GLAND: ADENOMA, CARCINOMA, LARGE INTESTINE: ADENOMATOUS POLYP OR ADENOCARCINO, Tumor Site: Type of Lesion: ZYMBAL GLAND: ADENOMA, CARCINOMA, CLITORAL GLAND: ADENOMA, CARCINOMA, LARGE INTESTINE: ADENOMATOUS POLYP OR ADENOCARCINO): active; positive | carcinogen call (Species: RAT, Strain/Sex: F344/MALE, Route: ORAL, Dose: 0, 80, 170, 330 PPM IN DRINKING WATER FOR 21 MO (STUDY DURATION: 21 MO), Dose: 0, 80, 170, 330 PPM IN DRINKING WATER FOR 21 MO (STUDY DURATION: 21 MO), Tumor Site: Type of Lesion: ZYMBAL GLAND: ADENOMA, CARCINOMA, PREPUTIAL GLAND: CARCINOMA, SKIN: BASAL CELL ADENOMA, BASAL CELL CARCINOMA, SQUAMOUS C, Tumor Site: Type of Lesion: ZYMBAL GLAND: ADENOMA, CARCINOMA, PREPUTIAL GLAND: CARCINOMA, SKIN: BASAL CELL ADENOMA, BASAL CELL CARCINOMA, SQUAMOUS C): active; positive | carcinogen call (Species: RAT, Strain/Sex: F344/MALE, Route: ORAL, Dose: 0, 80, 170, 330 PPM IN DRINKING WATER FOR 21 MO (STUDY DURATION: 93 WK), Dose: 0, 80, 170, 330 PPM IN DRINKING WATER FOR 21 MO (STUDY DURATION: 93 WK), Tumor Site: Type of Lesion: BRAIN: MALIGNANT ASTROCYTOMA, PREPUTIAL GLAND: CARCINOMA, ADENOMA OR CARCINOMA, LARGE INTESTINE: ADENOMATOUS POLYP OR AD, Tumor Site: Type of Lesion: BRAIN: MALIGNANT ASTROCYTOMA, PREPUTIAL GLAND: CARCINOMA, ADENOMA OR CARCINOMA, LARGE INTESTINE: ADENOMATOUS POLYP OR AD): active; positive

CNC(=O)Oc1cccc2c1OC(C)(C)O2
carcinogen call (Species: Mouse, Strain/Sex: CD-1/Female, Route: Oral, Dose: 0, 50, 250, 1250 ppm in diet for 94 wks, Dose: 0, 50, 250, 1250 ppm in diet for 94 wks): inactive; negative; purity 92.7% | carcinogen call (Species: Mouse, Strain/Sex: CD-1/Male, Route: Oral, Dose: 0, 50, 250, 1250 ppm in diet for 89 wks, Dose: 0, 50, 250, 1250 ppm in diet for 89 wks): inactive; negative; purity 92.7%

O[C@H]1[C@H]2O[C@H]2c2c(ccc3cc4ccc5ccccc5c4nc23)[C@@H]1O
carcinogen call (Species: MOUSE, Strain/Sex: CD-1/FEMALE, Route: INTRAPERITONEAL, Dose: 0, 28 NMOL (TOTAL DOSE) ADMINISTERED AS 1/7 OF DOSE WITHIN 24 HR AFTER BIRTH, 2/7 OF DOSE AT 8 D OLD, 4/7 OF DOSE AT 15): inactive; negative | carcinogen call (Species: MOUSE, Strain/Sex: CD-1/FEMALE, Route: INTRAPERITONEAL, Dose: 0, 175 NMOL (TOTAL DOSE) ADMINISTERED AS 1/7 OF DOSE WITHIN 24 HR AFTER BIRTH, 2/7 OF DOSE AT 8 D OLD, 4/7 OF DOSE AT 15): inactive; negative | carcinogen call (Species: MOUSE, Strain/Sex: CD-1/MALE, Route: INTRAPERITONEAL, Dose: 0, 28 NMOL (TOTAL DOSE) ADMINISTERED AS 1/7 OF DOSE WITHIN 24 HR AFTER BIRTH, 2/7 OF DOSE AT 8 D OLD, 4/7 OF DOSE AT 15): inactive; negative | carcinogen call (Species: MOUSE, Strain/Sex: CD-1/MALE, Route: INTRAPERITONEAL, Dose: 0, 175 NMOL (TOTAL DOSE) ADMINISTERED AS 1/7 OF DOSE WITHIN 24 HR AFTER BIRTH, 2/7 OF DOSE AT 8 D OLD, 4/7 OF DOSE AT 15): inactive; negative

CC(C)=CC1C(C(=O)OC(C#N)c2cccc(Oc3ccccc3)c2)C1(C)C (stereo not given)
carcinogen call (Species: Mouse, Strain/Sex: B6C3F1/Female (80/group), Route: Oral, Dose: 0, 100, 300, 1,000 ppm of 94.6-94.9% pure cyphenothrin for 104 wk, Dose: 0, 100, 300, 1,000 ppm of 94.6-94.9% pure cyphenothrin for 104 wk): inactive; negative (study details not presented by dpr evaluator) | carcinogen call (Species: Mouse, Strain/Sex: B6C3F1/Male (80/group), Route: Oral, Dose: 0, 100, 300, 1,000 ppm of 94.6-94.9% pure cyphenothrin for 104 wk, Dose: 0, 100, 300, 1,000 ppm of 94.6-94.9% pure cyphenothrin for 104 wk): inactive; negative (study details not presented by dpr evaluator)

CCN(CC)CC#CC(C)(C)OC(=O)C(O)(c1ccccc1)C1CCCCC1 (stereo not given)
carcinogen call (Species: MOUSE, Strain/Sex: B6C3F1/FEMALE, Route: ORAL, Dose: 0, 30, 100, 300 MG/KG/D IN DIET FOR 78 WK (STUDY DURATION: 78 WK), Dose: 0, 30, 100, 300 MG/KG/D IN DIET FOR 78 WK (STUDY DURATION: 78 WK)): inactive; negative | carcinogen call (Species: MOUSE, Strain/Sex: B6C3F1/MALE, Route: ORAL, Dose: 0, 30, 100, 300 MG/KG/D IN DIET FOR 78 WK (STUDY DURATION: 78 WK), Dose: 0, 30, 100, 300 MG/KG/D IN DIET FOR 78 WK (STUDY DURATION: 78 WK)): inactive; negative | carcinogen call (Species: RAT, Strain/Sex: F344/FEMALE, Route: ORAL, Dose: 0, 30, 100 MG/KG/D IN DIET FOR 2 YR (STUDY DURATION: 2 YR), Dose: 0, 30, 100 MG/KG/D IN DIET FOR 2 YR (STUDY DURATION: 2 YR)): inactive; negative | carcinogen call (Species: RAT, Strain/Sex: F344/MALE, Route: ORAL, Dose: 0, 10, 30, 100 MG/KG/D IN DIET FOR 2 YR (STUDY DURATION: 2 YR), Dose: 0, 10, 30, 100 MG/KG/D IN DIET FOR 2 YR (STUDY DURATION: 2 YR)): inactive; negative

Reference: PubChem BioAssay AID1259411 (Chemical Carcinogenesis Research Information System (CCRIS), 2018)
